Data as given in ChEMBL document CHEMBL1909046, “DrugMatrix in vitro pharmacology data”.

Biological target: Matrix metalloproteinase-9 (Homo sapiens, UniProt P14780);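 also: inhibition of isolated MMP-9 enzyme activity toward a synthetic peptide substrate, from the DrugMatrix protease screening panel; in other assays of this panel Not Active means under 50% inhibition at 10 µM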
Assay: biochemical
Format: cell-based
Settings: not given

Chain of Matrix metalloproteinase-9 (P14780 whole entry): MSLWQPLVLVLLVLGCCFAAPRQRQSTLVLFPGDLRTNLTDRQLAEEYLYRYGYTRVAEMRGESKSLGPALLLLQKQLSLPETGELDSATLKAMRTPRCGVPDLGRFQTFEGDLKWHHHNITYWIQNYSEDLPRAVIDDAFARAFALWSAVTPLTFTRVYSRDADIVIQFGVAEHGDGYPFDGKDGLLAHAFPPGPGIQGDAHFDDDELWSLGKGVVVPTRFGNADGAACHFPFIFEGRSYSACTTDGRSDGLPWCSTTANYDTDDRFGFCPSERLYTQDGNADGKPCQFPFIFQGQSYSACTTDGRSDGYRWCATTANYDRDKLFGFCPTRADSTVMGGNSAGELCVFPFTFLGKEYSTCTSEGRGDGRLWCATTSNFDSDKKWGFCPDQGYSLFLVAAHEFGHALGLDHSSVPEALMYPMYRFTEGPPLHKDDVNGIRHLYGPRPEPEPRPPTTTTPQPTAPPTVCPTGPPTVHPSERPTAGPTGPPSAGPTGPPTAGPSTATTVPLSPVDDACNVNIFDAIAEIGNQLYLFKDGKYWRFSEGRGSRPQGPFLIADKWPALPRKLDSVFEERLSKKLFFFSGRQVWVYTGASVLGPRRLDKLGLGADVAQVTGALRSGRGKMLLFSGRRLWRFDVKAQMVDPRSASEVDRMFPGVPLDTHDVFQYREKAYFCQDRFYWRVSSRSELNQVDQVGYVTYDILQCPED

Compound | IC50
C=C(C)[C@H]1Cc2c(ccc3c2O[C@@H]2COc4cc(OC)c(OC)cc4[C@@H]2C3=O)O1 [ROTENONE] | Not Active
C#CCN(C)[C@H](C)Cc1ccccc1 [SELEGILINE] | Not Active
CN[C@@H]1[C@H](O)[C@H](NC)[C@H]2O[C@@]3(O)C(=O)C[C@@H](C)O[C@H]3O[C@@H]2[C@H]1O [SPECTINOMYCIN] | Not Active
Nc1ccc(S(=O)(=O)Nc2nccs2)cc1 [SULFATHIAZOLE] | Not Active
CC(C)(C)NC[C@H](O)COc1nsnc1N1CCOCC1 [TIMOLOL] | Not Active
C[C@@H]1C[C@H]2[C@@H]3CCC4=CC(=O)C=C[C@]4(C)C3=CC[C@]2(C)[C@H]1C(=O)CN1CCN(c2cc(N3CCCC3)nc(N3CCCC3)n2)CC1 [TIRILAZAD] | Not Active
COc1ccc(CN2CCNCC2)c(OC)c1OC [TRIMETAZIDINE] | Not Active
COc1cc(C(=O)NS(=O)(=O)c2ccccc2C)ccc1Cc1cn(C)c2ccc(NC(=O)OC3CCCC3)cc12 [ZAFIRLUKAST] | Not Active

Biological target: Adenosine receptor A2a (Homo sapiens, UniProt P29274)
Sequence (P29274 whole entry): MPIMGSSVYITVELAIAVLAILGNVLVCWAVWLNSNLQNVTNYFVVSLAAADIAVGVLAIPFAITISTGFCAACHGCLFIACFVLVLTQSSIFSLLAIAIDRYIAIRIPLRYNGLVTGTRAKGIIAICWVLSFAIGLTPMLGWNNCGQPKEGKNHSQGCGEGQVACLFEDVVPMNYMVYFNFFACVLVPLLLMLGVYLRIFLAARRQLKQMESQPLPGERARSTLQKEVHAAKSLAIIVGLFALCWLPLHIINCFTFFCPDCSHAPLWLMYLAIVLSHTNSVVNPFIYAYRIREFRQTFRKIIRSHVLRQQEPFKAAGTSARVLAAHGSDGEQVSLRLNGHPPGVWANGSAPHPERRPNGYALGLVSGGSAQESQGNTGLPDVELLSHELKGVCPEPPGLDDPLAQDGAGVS
Assay: DRUGMATRIX: Adenosine A2A radioligand binding (ligand: […])
Format: cell membranes, HEK293, Membrane
Settings: hek293; Not Active = under 50% inhibition at 10 µM

Compound | IC50
C=C(C)[C@H]1Cc2c(ccc3c2O[C@@H]2COc4cc(OC)c(OC)cc4[C@@H]2C3=O)O1 [ROTENONE] | Not Active
C#CCN(C)[C@H](C)Cc1ccccc1 [SELEGILINE] | Not Active
CN[C@@H]1[C@H](O)[C@H](NC)[C@H]2O[C@@]3(O)C(=O)C[C@@H](C)O[C@H]3O[C@@H]2[C@H]1O [SPECTINOMYCIN] | Not Active
Nc1ccc(S(=O)(=O)Nc2nccs2)cc1 [SULFATHIAZOLE] | Not Active
CC(C)(C)NC[C@H](O)COc1nsnc1N1CCOCC1 [TIMOLOL] | Not Active
C[C@@H]1C[C@H]2[C@@H]3CCC4=CC(=O)C=C[C@]4(C)C3=CC[C@]2(C)[C@H]1C(=O)CN1CCN(c2cc(N3CCCC3)nc(N3CCCC3)n2)CC1 [TIRILAZAD] | Not Active
COc1ccc(CN2CCNCC2)c(OC)c1OC [TRIMETAZIDINE] | Not Active
COc1cc(C(=O)NS(=O)(=O)c2ccccc2C)ccc1Cc1cn(C)c2ccc(NC(=O)OC3CCCC3)cc12 [ZAFIRLUKAST] | Not Active

Biological target: T1, Estrogen receptor (Homo sapiens, UniProt P03372); also: in other assays of this panel Not Active means under 50% inhibition at 10 µM
T1 sequence (P03372 whole entry): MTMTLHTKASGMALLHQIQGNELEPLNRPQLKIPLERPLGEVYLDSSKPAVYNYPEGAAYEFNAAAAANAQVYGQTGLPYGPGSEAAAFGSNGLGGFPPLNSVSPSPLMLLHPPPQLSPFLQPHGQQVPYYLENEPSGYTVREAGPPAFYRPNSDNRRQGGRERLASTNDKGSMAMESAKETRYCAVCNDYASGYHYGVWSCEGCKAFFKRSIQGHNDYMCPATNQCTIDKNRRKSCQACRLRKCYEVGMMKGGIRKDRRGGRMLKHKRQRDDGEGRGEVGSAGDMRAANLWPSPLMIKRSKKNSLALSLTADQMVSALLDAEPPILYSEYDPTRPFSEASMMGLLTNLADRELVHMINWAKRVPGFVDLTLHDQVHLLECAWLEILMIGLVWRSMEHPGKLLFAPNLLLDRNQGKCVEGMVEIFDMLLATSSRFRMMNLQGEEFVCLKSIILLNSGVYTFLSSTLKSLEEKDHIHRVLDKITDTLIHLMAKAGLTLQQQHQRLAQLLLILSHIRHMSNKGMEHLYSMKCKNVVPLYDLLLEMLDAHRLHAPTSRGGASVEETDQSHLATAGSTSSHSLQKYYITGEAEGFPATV
Assay: not given
Settings: sf9

Compound | IC50
C#CCN(C)[C@H](C)Cc1ccccc1 [SELEGILINE] | Not Active
CN[C@@H]1[C@H](O)[C@H](NC)[C@H]2O[C@@]3(O)C(=O)C[C@@H](C)O[C@H]3O[C@@H]2[C@H]1O [SPECTINOMYCIN] | Not Active
Nc1ccc(S(=O)(=O)Nc2nccs2)cc1 [SULFATHIAZOLE] | Not Active
C[C@@H]1C[C@H]2[C@@H]3CCC4=CC(=O)C=C[C@]4(C)C3=CC[C@]2(C)[C@H]1C(=O)CN1CCN(c2cc(N3CCCC3)nc(N3CCCC3)n2)CC1 [TIRILAZAD] | Not Active
COc1ccc(CN2CCNCC2)c(OC)c1OC [TRIMETAZIDINE] | Not Active
COc1cc(C(=O)NS(=O)(=O)c2ccccc2C)ccc1Cc1cn(C)c2ccc(NC(=O)OC3CCCC3)cc12 [ZAFIRLUKAST] | Not Active

Tested on: not listed separately
Assay: DRUGMATRIX: beta-Lactamase enzyme inhibition (substrate: Nitrocefin)
Parameters: species or system Bacillus cereus
Settings: Not Active = under 50% inhibition at 10 µM

Compound | IC50 | Ki
C=C(C)[C@H]1Cc2c(ccc3c2O[C@@H]2COc4cc(OC)c(OC)cc4[C@@H]2C3=O)O1 [ROTENONE] | Not Active | Not Active
C#CCN(C)[C@H](C)Cc1ccccc1 [SELEGILINE] | Not Active | Not Active
CN[C@@H]1[C@H](O)[C@H](NC)[C@H]2O[C@@]3(O)C(=O)C[C@@H](C)O[C@H]3O[C@@H]2[C@H]1O [SPECTINOMYCIN] | Not Active | Not Active
Nc1ccc(S(=O)(=O)Nc2nccs2)cc1 [SULFATHIAZOLE] | Not Active | Not Active
CC(C)(C)NC[C@H](O)COc1nsnc1N1CCOCC1 [TIMOLOL] | Not Active | Not Active
C[C@@H]1C[C@H]2[C@@H]3CCC4=CC(=O)C=C[C@]4(C)C3=CC[C@]2(C)[C@H]1C(=O)CN1CCN(c2cc(N3CCCC3)nc(N3CCCC3)n2)CC1 [TIRILAZAD] | Not Active | Not Active
COc1ccc(CN2CCNCC2)c(OC)c1OC [TRIMETAZIDINE] | Not Active | Not Active
COc1cc(C(=O)NS(=O)(=O)c2ccccc2C)ccc1Cc1cn(C)c2ccc(NC(=O)OC3CCCC3)cc12 [ZAFIRLUKAST] | Not Active | Not Active

Tested on: not listed separately
Assay: DRUGMATRIX: Glutamate, AMPA radioligand binding (ligand: [3H] AMPA)
Format: cell membranes, Rattus norvegicus, Wistar, Cerebral cortex, Membrane
Settings: Not Active = under 50% inhibition at 10 µM

Compound | IC50 | Ki
C=C(C)[C@H]1Cc2c(ccc3c2O[C@@H]2COc4cc(OC)c(OC)cc4[C@@H]2C3=O)O1 [ROTENONE] | Not Active | Not Active
C#CCN(C)[C@H](C)Cc1ccccc1 [SELEGILINE] | Not Active | Not Active
CN[C@@H]1[C@H](O)[C@H](NC)[C@H]2O[C@@]3(O)C(=O)C[C@@H](C)O[C@H]3O[C@@H]2[C@H]1O [SPECTINOMYCIN] | Not Active | Not Active
Nc1ccc(S(=O)(=O)Nc2nccs2)cc1 [SULFATHIAZOLE] | Not Active | Not Active
CC(C)(C)NC[C@H](O)COc1nsnc1N1CCOCC1 [TIMOLOL] | Not Active | Not Active
C[C@@H]1C[C@H]2[C@@H]3CCC4=CC(=O)C=C[C@]4(C)C3=CC[C@]2(C)[C@H]1C(=O)CN1CCN(c2cc(N3CCCC3)nc(N3CCCC3)n2)CC1 [TIRILAZAD] | Not Active | Not Active
COc1ccc(CN2CCNCC2)c(OC)c1OC [TRIMETAZIDINE] | Not Active | Not Active
COc1cc(C(=O)NS(=O)(=O)c2ccccc2C)ccc1Cc1cn(C)c2ccc(NC(=O)OC3CCCC3)cc12 [ZAFIRLUKAST] | Not Active | Not Active

Biological target: Vasopressin V1a receptor (Homo sapiens, UniProt P37288); also: in other assays of this panel Not Active means under 50% inhibition at 10 µM
Sequence (P37288 whole entry): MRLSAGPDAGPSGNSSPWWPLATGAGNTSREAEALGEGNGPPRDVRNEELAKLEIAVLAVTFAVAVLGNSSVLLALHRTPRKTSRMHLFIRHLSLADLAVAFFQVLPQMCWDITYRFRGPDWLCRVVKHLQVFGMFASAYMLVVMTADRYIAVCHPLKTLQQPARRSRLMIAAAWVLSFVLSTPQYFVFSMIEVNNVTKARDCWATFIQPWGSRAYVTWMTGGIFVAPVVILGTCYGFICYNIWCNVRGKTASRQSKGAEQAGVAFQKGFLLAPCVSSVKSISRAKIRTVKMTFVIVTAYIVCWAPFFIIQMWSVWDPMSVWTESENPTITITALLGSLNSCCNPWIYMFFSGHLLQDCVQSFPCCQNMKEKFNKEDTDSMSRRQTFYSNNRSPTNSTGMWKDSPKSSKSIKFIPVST
Assay: not given
Format: cell membranes, Membrane
Settings: hek293

Compound | IC50
C=C(C)[C@H]1Cc2c(ccc3c2O[C@@H]2COc4cc(OC)c(OC)cc4[C@@H]2C3=O)O1 [ROTENONE] | Not Active
C#CCN(C)[C@H](C)Cc1ccccc1 [SELEGILINE] | Not Active
CN[C@@H]1[C@H](O)[C@H](NC)[C@H]2O[C@@]3(O)C(=O)C[C@@H](C)O[C@H]3O[C@@H]2[C@H]1O [SPECTINOMYCIN] | Not Active
Nc1ccc(S(=O)(=O)Nc2nccs2)cc1 [SULFATHIAZOLE] | Not Active
CC(C)(C)NC[C@H](O)COc1nsnc1N1CCOCC1 [TIMOLOL] | Not Active
C[C@@H]1C[C@H]2[C@@H]3CCC4=CC(=O)C=C[C@]4(C)C3=CC[C@]2(C)[C@H]1C(=O)CN1CCN(c2cc(N3CCCC3)nc(N3CCCC3)n2)CC1 [TIRILAZAD] | Not Active
COc1ccc(CN2CCNCC2)c(OC)c1OC [TRIMETAZIDINE] | Not Active
COc1cc(C(=O)NS(=O)(=O)c2ccccc2C)ccc1Cc1cn(C)c2ccc(NC(=O)OC3CCCC3)cc12 [ZAFIRLUKAST] | Not Active

Biological target: 5-hydroxytryptamine receptor 4 (Cavia porcellus, UniProt O70528); also: in other assays of this panel Not Active means under 50% inhibition at 10 µM
Sequence (O70528 whole entry): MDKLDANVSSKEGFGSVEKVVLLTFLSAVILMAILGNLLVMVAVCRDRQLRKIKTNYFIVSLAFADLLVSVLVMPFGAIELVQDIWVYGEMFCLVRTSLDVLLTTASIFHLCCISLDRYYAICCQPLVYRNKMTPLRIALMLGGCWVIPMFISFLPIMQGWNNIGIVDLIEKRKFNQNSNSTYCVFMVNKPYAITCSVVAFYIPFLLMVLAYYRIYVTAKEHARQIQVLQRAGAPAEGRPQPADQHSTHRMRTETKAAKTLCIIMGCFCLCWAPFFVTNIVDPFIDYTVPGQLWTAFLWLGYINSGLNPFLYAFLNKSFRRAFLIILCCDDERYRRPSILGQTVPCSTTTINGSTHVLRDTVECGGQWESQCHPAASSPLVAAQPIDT
Assay: not given
Format: cell membranes, Dunkin-Hartley, Striatum, Membrane
Settings: not given

Compound | IC50
C=C(C)[C@H]1Cc2c(ccc3c2O[C@@H]2COc4cc(OC)c(OC)cc4[C@@H]2C3=O)O1 [ROTENONE] | Not Active
C#CCN(C)[C@H](C)Cc1ccccc1 [SELEGILINE] | Not Active
CN[C@@H]1[C@H](O)[C@H](NC)[C@H]2O[C@@]3(O)C(=O)C[C@@H](C)O[C@H]3O[C@@H]2[C@H]1O [SPECTINOMYCIN] | Not Active
Nc1ccc(S(=O)(=O)Nc2nccs2)cc1 [SULFATHIAZOLE] | Not Active
CC(C)(C)NC[C@H](O)COc1nsnc1N1CCOCC1 [TIMOLOL] | Not Active
C[C@@H]1C[C@H]2[C@@H]3CCC4=CC(=O)C=C[C@]4(C)C3=CC[C@]2(C)[C@H]1C(=O)CN1CCN(c2cc(N3CCCC3)nc(N3CCCC3)n2)CC1 [TIRILAZAD] | Not Active
COc1ccc(CN2CCNCC2)c(OC)c1OC [TRIMETAZIDINE] | Not Active
COc1cc(C(=O)NS(=O)(=O)c2ccccc2C)ccc1Cc1cn(C)c2ccc(NC(=O)OC3CCCC3)cc12 [ZAFIRLUKAST] | Not Active

Biological target: T2, Glucocorticoid receptor (Homo sapiens, UniProt P04150); also: in other assays of this panel Not Active means under 50% inhibition at 10 µM
T2 sequence (P04150 whole entry): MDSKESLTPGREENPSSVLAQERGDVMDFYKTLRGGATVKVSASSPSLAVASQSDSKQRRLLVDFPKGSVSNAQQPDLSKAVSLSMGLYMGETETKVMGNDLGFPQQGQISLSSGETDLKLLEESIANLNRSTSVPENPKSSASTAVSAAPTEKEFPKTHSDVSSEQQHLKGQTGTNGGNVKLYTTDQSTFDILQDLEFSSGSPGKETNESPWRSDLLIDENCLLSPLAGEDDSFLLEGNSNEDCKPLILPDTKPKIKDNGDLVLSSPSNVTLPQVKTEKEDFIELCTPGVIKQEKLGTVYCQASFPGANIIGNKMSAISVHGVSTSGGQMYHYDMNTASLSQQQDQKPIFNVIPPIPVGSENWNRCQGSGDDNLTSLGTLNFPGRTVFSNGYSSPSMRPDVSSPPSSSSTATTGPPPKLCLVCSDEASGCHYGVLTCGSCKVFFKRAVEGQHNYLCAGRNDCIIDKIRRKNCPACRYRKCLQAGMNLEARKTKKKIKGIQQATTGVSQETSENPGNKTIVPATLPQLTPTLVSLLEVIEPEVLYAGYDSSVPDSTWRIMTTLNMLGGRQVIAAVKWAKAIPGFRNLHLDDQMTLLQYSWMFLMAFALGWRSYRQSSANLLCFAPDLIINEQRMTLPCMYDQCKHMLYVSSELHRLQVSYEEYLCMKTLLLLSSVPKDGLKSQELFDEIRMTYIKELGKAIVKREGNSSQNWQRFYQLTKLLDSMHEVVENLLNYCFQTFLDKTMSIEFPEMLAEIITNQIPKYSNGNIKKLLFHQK
Assay: not given
Settings: hela s3

Compound | IC50
C=C(C)[C@H]1Cc2c(ccc3c2O[C@@H]2COc4cc(OC)c(OC)cc4[C@@H]2C3=O)O1 [ROTENONE] | Not Active
C#CCN(C)[C@H](C)Cc1ccccc1 [SELEGILINE] | Not Active
CN[C@@H]1[C@H](O)[C@H](NC)[C@H]2O[C@@]3(O)C(=O)C[C@@H](C)O[C@H]3O[C@@H]2[C@H]1O [SPECTINOMYCIN] | Not Active
Nc1ccc(S(=O)(=O)Nc2nccs2)cc1 [SULFATHIAZOLE] | Not Active
CC(C)(C)NC[C@H](O)COc1nsnc1N1CCOCC1 [TIMOLOL] | Not Active
C[C@@H]1C[C@H]2[C@@H]3CCC4=CC(=O)C=C[C@]4(C)C3=CC[C@]2(C)[C@H]1C(=O)CN1CCN(c2cc(N3CCCC3)nc(N3CCCC3)n2)CC1 [TIRILAZAD] | Not Active
COc1ccc(CN2CCNCC2)c(OC)c1OC [TRIMETAZIDINE] | Not Active
COc1cc(C(=O)NS(=O)(=O)c2ccccc2C)ccc1Cc1cn(C)c2ccc(NC(=O)OC3CCCC3)cc12 [ZAFIRLUKAST] | Not Active
